# Measured values reported in patent US12576082B2, “METTL16 inhibitors and uses thereof” (City of Hope, priority 2019, dated 2026).
# Experiments:
# AML cells = test: Cell viability and growth in AML cells (FIGS. 9A-9B); format: cell-based
# Experimental: (§1) Cell viability and proliferation assay. Cell viability and proliferation were performed with CellTiter 96 Non-Radioactive Cell Proliferation Assay (MTT, […], Promega). To verify the function of METTL16 inhibitor, cancer cells were seeded into 96-well plate and treated with a series of drug concentration in triplicates. For the cell proliferation with METTL16 knockdown stable cell lines were seeded into 96-well plates, and cultured in the incubator at 37° C. with 5% CO2. 15 μl of the Dye Solution was added into each well. After incubation of 2-4 h, 100 μl of the Solubilization Solution/Stop Mix was added to each well. Finally, the absorbance was determined at 570 nm on the next day.
# METTL16 [1] = molecular target: T1, METTL16 (Homo sapiens, UniProt Q86W50); test: Cellular thermal shift assay (CETSA) in U937 cells; format: binding; details: 50 μM CDH24 1 h, different temperatures, immunoblot
# T1 construct: endogenous in cells; host or cells: U937, Kasumi-1, MA9.3RAS (human AML cells)
# T1 sequence (Q86W50 1-562): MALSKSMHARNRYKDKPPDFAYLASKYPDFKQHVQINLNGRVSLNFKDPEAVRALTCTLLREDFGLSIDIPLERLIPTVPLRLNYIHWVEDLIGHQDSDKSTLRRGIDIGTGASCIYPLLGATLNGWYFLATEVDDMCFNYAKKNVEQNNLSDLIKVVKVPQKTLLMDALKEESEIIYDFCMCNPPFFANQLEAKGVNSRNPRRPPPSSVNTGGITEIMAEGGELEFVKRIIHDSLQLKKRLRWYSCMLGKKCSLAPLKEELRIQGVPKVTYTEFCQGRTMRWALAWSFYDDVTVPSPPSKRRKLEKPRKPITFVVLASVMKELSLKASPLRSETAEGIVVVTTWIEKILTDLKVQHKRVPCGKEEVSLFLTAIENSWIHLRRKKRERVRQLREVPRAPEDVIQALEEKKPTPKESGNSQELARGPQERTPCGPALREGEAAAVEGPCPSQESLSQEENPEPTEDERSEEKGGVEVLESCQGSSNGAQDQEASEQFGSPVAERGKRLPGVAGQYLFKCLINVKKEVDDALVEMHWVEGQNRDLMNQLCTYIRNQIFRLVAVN
# Experimental: Cellular Thermal Shift Assay (CETSA). […] Then, the cells were re-suspended in 1.5 ml PBS supplemented with protease inhibitor cocktail. And the cells were distributed into 10 different 200 ul 8-strip PCR tubes with 100 ul for each tube, heat shocked in the Bio-Rad T100 Thermal Cycler at indicated temperature for 3 min to denature proteins, and immediately cooled down at room temperature for 3 min. cells were lysed using dry ice and two repeated cycles of freeze-thaw, then centrifuged at 20,000 g for 20 min at 4° C. Soluble proteins, collected from the supernatant were denatured with 4× Laemmli Sample Buffer at 99° C. for 10 min. Finally, the protein samples were analyzed by western blot.
# (§2) For DARTS, U937 cell lysates were treated with CDH-24 (from 0.1 uM to 500 uM) or DMSO; samples were subjected to pronase digestion and detected by immunoblotting. Actin was resistant to subtilizing under these conditions and served as a loading control. […] METTL16 knockdown by shRNAs was confirmed by western blots (FIG. 5D). […] In FIGS. 5A-5F: *p<005; **p<0.01: ***p<0001; t test. Error bars, mean±SEM (n≥3).
# METTL16 [2] = molecular target: T1, METTL16; test: Drug affinity responsive target stability (DARTS) in U937 cell lysates; format: binding; details: CDH24 0.1 uM to 500 uM, pronase digestion, immunoblot
# Experimental: Drug Affinity Responsive Targets Stability (DARTS). […] In short, 4×10^7 U937 cells were collected, washed with chilled PBS, and lysed in 600 ul M-PER (78501, Thermo Fisher Scientific) supplement with protease inhibitor cocktail and phosphatase inhibitor cocktail. The cells were lysed on ice for 10 min, and centrifuged at 18,000 g for 10 min at 4° C. The supernatant was carefully transferred to a new tube. 10× TNC buffer (500 mM Tris-HCl with pH 8.0, 500 mM NaCl, 100 mM CaCl2) was added into lysate, the protein concentration was then detected by BCA assay. The protein concentration diluted with 1× TNC buffer was adjusted to 5 ug/ul. […] The reaction was quenched by addition of protease inhibitor cocktail and the sample was immediately placed on ice. 4× Laemmli Sample Buffer was added to lysate and denatured at 99° C. for 10 min. Finally, western blotting was used to determine the abundance of METTL16.
# as §2
# AML and other cancers = test: Cell viability of cancer cell lines on CDH24 treatment (MTT); format: cell-based, human
# Experimental: as §1
# FIG. 4A provides a Western blots analysis showing the levels of METTL16 expression in various AML cell lines (Kasumi-1, MONOMAC6 (MM6), K562, ML-2, 9.3ITD, U937) and normal bone marrow (BM) mononuclear cells. Actin served as a loading control. […] The values were detected by MTT assays 48 or 72 hours post treatment. In FIGS. 4A-4K: *p<0.05; **p<0.01; ***p<0.001; t test. Error bars, mean±SEM (n≥3)
# METTL16 [3] = molecular target: T1, METTL16; test: m6A dot blot, global m6A in AML cells; format: cell-based
# Experimental: m^6A dot blot assay. Total RNA was purified with QIAzol regent, and mixed well with 3 volumes of RNA incubation buffer, then denatured at 65° C. for 5 minutes and cooling down on ice immediately. 200 ul of 10×SSC buffer (S6639, Sigma-Aldrich) was loaded onto the Amersham Hybond-N+ membrane for each well to pre-wet the membrane. Then one volume of 20×SSC buffer was added into the RNA samples before dotted onto the membrane. The UV irradiation was used to crosslink RNA to the membrane. After crosslink, the membrane was stained by 0.02% methylene blue and scanned as loading control. Then, the membrane was blocked with 5% nonfat dry milk at room temperature for 1 h and incubated with anti-m6A antibody (1:2000, Synaptic Systems) overnight at 4° C. Next day, the membrane was incubated with the HRP-conjugated goat anti-rabbit IgG (ab6721, abcam) at room temperature for 1 h and developed with pierce ECL Western blotting Substrate (PI32106, Thermo Fisher).
# MB, methyl blue (as loading control). FIGS. 6B-6C show gene-specific m^6A qPCR analysis of m^6A level changes in mRNA transcripts of several known target transcripts of METTL16 in U937 (FIG. 6B) or MA9.3RAS (FIG. 6C) AML cells upon 72 hours treatment of […], relative to cells treated with DMSO.
# human NOMO-1 AML cells = test: Viability of human NOMO-1 AML cells (MTT, CellTiter 96); format: cell-based; details: NOMO-1 cells, 10,000 cells/well, 72 h treatment, read-out: IC50 in inhibiting the viability of human NOMO-1 AML cells
# Experimental: as §1
# The compounds described herein were tested for their ability to inhibit the viability of human NOMO-1 AML cells. […] Cell viability. NOMO-1 cells were seeded into 96-well plate in the concentration of 10,000 cells/well and treated with compounds in triplicates for 72 h. Cell viability was assessed by CellTiter 96 Non-Radioactive Cell Proliferation Assay (MTT, G4100, Promega) following the manufacturer's protocols.
smiles,measurement,setting,value
Nc1ccc(Cn2ccc3c4c(N)nc(N)nc4ccc32)c(CO)c1 [CDH24-6],cell viability and growth in AML cells,AML cells,inhibit cell viability and growth
Nc1ccc(CO)c(Cn2ccc3c4c(N)nc(N)nc4ccc32)c1 [CDH24-7],cell viability and growth in AML cells,AML cells,inhibit cell viability and growth
Nc1ccc(Cn2ccc3c4c(N)nc(N)nc4ccc32)cc1 [CDH24],binding to METTL16 by CETSA,METTL16 [1],direct binding
same,binding to METTL16 by DARTS,METTL16 [2],direct binding
same,cell viability and growth in AML and other cancers,AML and other cancers; FIGS. 4A-4K,inhibitory effect
same,"cell viability in ALL, lymphoma, cervical cancer, pancreatic cancer and glioblastoma cell lines","AML and other cancers; MTT assay 72 hours post treatment, series of concentrations",inhibitory effects
same,methyltransferase activity of METTL16 and expression of METTL16 target genes,METTL16 [3]; FIGS. 6A-6C,inhibitory effect
same,levels of global m^6A,"METTL16 [3]; U937, Kasumi-1 and MA9.3RAS AML cells, 48 hours treatment",increases
N#Cc1ccc(-n2ccc3c4c(N)nc(N)nc4ccc32)cc1 [Compound (E)],IC50,human NOMO-1 AML cells,20.6 nM
Nc1nc(N)c2c(ccc3c2ccn3Cc2ccc(Cl)cc2)n1 [Compound (F)],IC50,human NOMO-1 AML cells,1.55 nM
N#Cc1ccc(C(=O)n2ccc3c4c(N)nc(N)nc4ccc32)cc1 [Compound (G)],IC50,human NOMO-1 AML cells,736 nM
CC(=O)Nc1ccc(Cn2ccc3c4c(N)nc(N)nc4ccc32)cc1 [Compound D],IC50,human NOMO-1 AML cells,1.4 nM
Nc1nc(N)c2c(ccc3[nH]ccc32)n1 [Compound H],IC50,human NOMO-1 AML cells,931 nM
